According to patent publication US12180193B2, “Accelerating fibrosarcoma protein degrading compounds and associated methods of use” (Arvinas Operations, Inc., priority 2020, dated 2024):

Tests used:
BRAF V600E = target: T1, BRAF V600E (Homo sapiens, UniProt P15056, V600E); experiment: Cellular assay of target protein degradation, T-Rex 293 cells stably transfected with HA-BRAF_V600E (HA immunofluorescence, high content imaging); type: cell-based; conditions: T-Rex 293 HA-BRAF V600E; for DC50: half maximal degradation, read-out: BRaf V600E DC50; for Dmax: maximum degradation observed
T1 construct: expressed in transfected cells
T1 sequence (P15056 whole entry V600E): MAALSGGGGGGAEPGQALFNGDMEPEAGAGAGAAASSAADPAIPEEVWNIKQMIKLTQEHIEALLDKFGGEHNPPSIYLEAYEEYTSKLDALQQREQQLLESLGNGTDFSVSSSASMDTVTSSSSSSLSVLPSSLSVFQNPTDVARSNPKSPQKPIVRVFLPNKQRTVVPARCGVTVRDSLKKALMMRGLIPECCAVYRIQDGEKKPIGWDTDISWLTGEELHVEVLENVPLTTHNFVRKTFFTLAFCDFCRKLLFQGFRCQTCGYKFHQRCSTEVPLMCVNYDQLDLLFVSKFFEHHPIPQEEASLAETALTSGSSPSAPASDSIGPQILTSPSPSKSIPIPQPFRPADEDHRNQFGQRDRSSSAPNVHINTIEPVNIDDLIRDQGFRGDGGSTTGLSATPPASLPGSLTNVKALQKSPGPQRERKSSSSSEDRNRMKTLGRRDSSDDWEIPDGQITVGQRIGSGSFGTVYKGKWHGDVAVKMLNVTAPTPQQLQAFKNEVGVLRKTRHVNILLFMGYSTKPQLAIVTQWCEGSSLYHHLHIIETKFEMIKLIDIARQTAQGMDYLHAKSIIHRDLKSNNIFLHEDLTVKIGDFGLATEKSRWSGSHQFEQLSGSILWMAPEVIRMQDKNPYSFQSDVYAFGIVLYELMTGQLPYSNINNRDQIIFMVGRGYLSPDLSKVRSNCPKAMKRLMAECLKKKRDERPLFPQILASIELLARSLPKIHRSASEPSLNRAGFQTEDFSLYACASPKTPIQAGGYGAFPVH
Outline: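 Read-out is anti-HA immunofluorescence quantified by high-content imaging, giving half-maximal degradation concentration (DC50) and maximum degradation (Dmax, percent of control). Cells expressed the construct under 1 ng/mL doxycycline and received compound (1 μM to 0.1 nM final, 0.1% DMSO) for 24 h at 37 °C.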

BRAF G466V = target: T2, BRAF G466V (Homo sapiens, UniProt P15056, G466V); experiment: Cellular assay of target protein degradation, T-Rex 293 cells stably transfected with HA-BRAF G466V (HA immunofluorescence, high content imaging); type: cell-based; conditions: T-Rex 293 HA-BRAF G466V; for DC50: half maximal degradation, read-out: BRaf G466V DC50; for Dmax: maximum degradation observed
T2 construct: expressed in transfected cells
T2 sequence (P15056 whole entry G466V): as the sequence (P15056 whole entry V600E) above, with G466V, E600V counted along it
Outline: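 First, stably transfected T-Rex 293 cells were plated with 0.75 ng/mL doxycycline and grown for 24 hours. Next, compound (final 30 nM to 3 pM, 0.1% DMSO) was added for another 24 hours at 37° C. Finally, cells were fixed, stained for HA and imaged.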

DC50 (BRAF V600E) | Dmax (BRAF V600E) | DC50 (BRAF G466V) | Dmax (BRAF G466V) | SMILES
< 5 nM | 35 to 70% | 1 to 10 nM | > 70% | O=C1CC[C@H](N2Cc3cc(N4CC(CN5C[C@@H]6CN(c7ccc(-c8cnc9[nH]cc(C(=O)c%10c(F)ccc(NS(=O)(=O)N%11CC[C@@H](F)C%11)c%10F)c9c8)cc7)C[C@@H]6C5)C4)ccc3C2=O)C(=O)N1 [Compound 85, (3R)-N-[3-(5-{4-[(3aR,6aS)-5-[(1-{2-[(3S)-2,6-dioxopiperidin-3-yl]-1-oxo-2,3-dihydro-1H-isoindol-5-yl}azetidin-3-yl)methyl]-octahydropyrrolo[3,4-c]pyrrol-2-yl]phenyl}-1H-pyrrolo[2,3-b]pyridine-3-carbonyl)-2,4-difluorophenyl]-3-fluoropyrrolidine-1-sulfonamide]
5 to 50 nM | 35 to 70% | < 1 nM | 35 to 70% | O=C1CC[C@@H](N2Cc3cc(C[C@H](O)CN4CCC(c5ccc(-c6cnc7[nH]cc(C(=O)c8c(F)ccc(NS(=O)(=O)N9CC[C@@H](F)C9)c8F)c7c6)cc5)CC4)ccc3C2=O)C(=O)N1 [Compound 116, (3R)-N-{3-[5-(4-{1-[(2S)-3-{2-[(3R)-2,6-dioxopiperidin-3-yl]-1-oxo-2,3-dihydro-1H-isoindol-5-yl}-2-hydroxypropyl]piperidin-4-yl}phenyl)-1H-pyrrolo[2,3-b]pyridine-3-carbonyl]-2,4-difluorophenyl}-3-fluoropyrrolidine-1-sulfonamide]

The remaining lines, values behind:

SMILES | DC50 (BRAF V600E) | Dmax (BRAF V600E) | DC50 (BRAF G466V) | Dmax (BRAF G466V)
O=C1CC[C@H](NC(=O)c2ccc(C3CCN(CC4CCN(c5ncc(-c6cnc7[nH]cc(C(=O)c8c(F)ccc(NS(=O)(=O)N9CC[C@@H](F)C9)c8F)c7c6)cn5)CC4)CC3)cc2F)C(=O)N1 [Compound 375, 4-(1-{[1-(5-{3-[2,6-difluoro-3-({[(3R)-3-fluoropyrrolidin-1-yl]sulfonyl}amino)benzoyl]-1H-pyrrolo[2,3-b]pyridin-5-yl}pyrimidin-2-yl)piperidin-4-yl]methyl}piperidin-4-yl)-N-[(3S)-2,6-dioxopiperidin-3-yl]-2-fluorobenzamide] | 50 to 500 nM | 35 to 70% | 1 to 10 nM | 35 to 70%
CCCS(=O)(=O)Nc1ccc(F)c(C(=O)c2c[nH]c3ncc(-c4ccc(N5CCC(CN6CCC(c7ccc8c(c7)CN(C7CCC(=O)NC7=O)C8=O)CC6)CC5)cc4)cc23)c1F (stereo not drawn) [Compound 236, N-[3-(5-{4-[4-({4-[2-(2,6-dioxopiperidin-3-yl)-1-oxo-2,3-dihydro-1H-isoindol-5-yl]piperidin-1-yl}methyl)piperidin-1-yl]phenyl}-1H-pyrrolo[2,3-b]pyridine-3-carbonyl)-2,4-difluorophenyl]propane-1-sulfonamide] | 5 to 50 nM | 35 to 70% | < 1 nM | > 70%
O=C1CC[C@@H](N2Cc3cc(N4CCN(CC5CCN(c6ccc(-c7cnc8[nH]cc(C(=O)c9c(F)ccc(NS(=O)(=O)N%10CC[C@@H](F)C%10)c9F)c8c7)cc6)CC5)CC4)ccc3C2=O)C(=O)N1 [Compound 220, (3R)-N-{3-[5-(4-{4-[(4-{2-[(3R)-2,6-dioxopiperidin-3-yl]-1-oxo-2,3-dihydro-1H-isoindol-5-yl}piperazin-1-yl)methyl]piperidin-1-yl}phenyl)-1H-pyrrolo [2,3-b]pyridine-3-carbonyl]-2,4-difluorophenyl}-3-fluoropyrrolidine-1-sulfonamide] | 5 to 50 nM | 35 to 70% | 1 to 10 nM | > 70%
O=C1CCC(N2Cc3cc(N4CCC(CN5CCC(C6(c7ccc(-c8cnc9[nH]cc(C(=O)c%10c(F)ccc(NS(=O)(=O)N%11CC[C@@H](F)C%11)c%10F)c9c8)cc7)CC6)CC5)CC4)ccc3C2=O)C(=O)N1 (stereo partly drawn) [Compound 174, (3R)-N-{3-[5-(4-{1-[1-({1-[2-(2,6-dioxopiperidin-3-yl)-1-oxo-2,3-dihydro-1H-isoindol-5-yl]piperidin-4-yl}methyl)piperidin-4-yl]cyclopropyl}phenyl)-1H-pyrrolo[2,3-b]pyridine-3-carbonyl]-2,4-difluorophenyl}-3-fluoropyrrolidine-1-sulfonamide] | 5 to 50 nM | < 35% | 1 to 10 nM | > 70%
